Assay results: patent US9969771B2, “Tetrapeptide having effect of inhibiting VEGF-induced angiogenesis and use thereof” (AVIXGEN INC., priority 2015, dated 2018)
Entries after “also recorded” stand apart in the source; their conditions may differ. Where a SMILES comes first, the peptide text is derived from it.

Experiments:
[1] = system: zebrafish; assay: Zebrafish angiogenesis assay; format: in vivo; conditions: zebrafish embryo
Description: An adult zebrafish and an embryo were grown and maintained in a standard laboratory environment, and a zebrafish experiment was conducted according to the protocols approved by the animal ethics committee of Chungnam National University. To analyze angiogenesis, at 48 hours post fertilization (hpf), the embryo was anesthetized with tricaine (MS-222, 0.02%, embryo buffer), a peptide was administered, and FITC-dextran (2,000 kDa, Sigma) was further injected. A blood vessel image was obtained with a Leica DM5000B system at 72 hpf. As a probe for whole mount in situ hybridization, digoxigenin (DIG)-labeled RNA prepared by a cad5 (NM_001003983) gene was used. Meanwhile, a peptide was injected into the 18-hpf embryo collected at 25 hpf, fixed with 4% paraformaldehyde, washed with PBS (in 0.1% Tween20), and hybridized with DIG-labeled riboprobes (hybridization buffer). Subsequently, the resulting product was reacted with an alkaline phosphatase (AP)-conjugated anti-DIG antibody. Following reaction with an AP staining solution, a staining status was observed and visualized under a microscope (Leica, MZ-16).

[2] = molecular target: VEGFR-2 (Homo sapiens, UniProt P35968); assay: Western blot, VEGFR-2 phosphorylation in VEGF-A-treated HUVECs; format: cell-based; parameters: endogenous in cells; host or cells: HUVEC
Description: (§1) Cells were lyzed in RIPA buffer, and 50 μg of proteins were isolated by SDS-PAGE and then transferred to a PVDF membrane. The membrane was reacted with an antibody with respect to a target protein for 2 hours. The membrane was washed twice and reacted with a horseradish peroxidase-conjugated antibody, and then an amount of the target proteins was assessed with an enhanced chemiluminescence system.

[3] = system: p38; assay: Western blot, p38 activation in VEGF-A-stimulated HUVECs; format: cell-based, human; conditions: HUVECs stimulated with VEGF-A
Description: as §1

[4] = system: VEGF-A-induced angiogenesis; assay: Matrigel implantation, intravital fluorescence microscopy; format: in vivo, C57BL/6J mouse; conditions: mouse, RLYE 1.5 nM, VEGF 100 ng
Description: Formation of new blood vessels was examined by intravital fluorescence microscopy. A C57BL/6J mouse was anesthetized, and then a titanium-made imaging window was installed between the skin and an abdominal wall by surgery. 100 μl of Matrigel containing RLYE (SEQ ID NO: 2) (1.5 nM) alone or in combination with VEGF (100 ng) was injected into an inner space between the skin and abdominal walls of the window. Four days later, 50 μl of dextran (MW 250 kDa) labeled with 25 mg/ml of FITC was injected into the caudal vein, and then formation of new blood vessels was observed under a Zeiss Axiovert 200M microscope (Carl Zeiss). A vascular length density of the FITC-labeled dextran-perfuse blood vessels per observation area (mm/mm2) was calculated.

[5] = molecular target: T1, VEGFR-1 (Homo sapiens, UniProt P17948); assay: VEGFR pull-down assay using biotin-labeled RLYE, VEGFR-1; format: binding; conditions: HUVEC lysate
T1 construct: endogenous in cells; host or cells: HUVEC lysate
Description: HUVECs were lysed in a pull-down buffer [50 mM Tris-HCl (pH 8.0), 150 mM sodium chloride, 1.0% NP-40, 0.5% sodium deoxycholate and 0.1% SDS]. A lysate ([…] of proteins) was reacted with biotin-labeled RLYE (SEQ ID NO: 2) (0.15 or 1.5 nM) for 1 hour, and reacted with streptavidin-agarose beads ([…]) at 4° C. for 1 hour. RLYE (SEQ ID NO: 2)-binding proteins were isolated from the cell lysate through centrifugation, washed, and then boiled for 10 minutes. The bead-binding proteins were isolated by SDS-PAGE, and immunoblotting was performed with an antibody with respect to VEGFR-2 or VEGFR-1.

[6] = system: chick chorioallantoic membrane (CAM); assay: Chick chorioallantoic membrane (CAM) analysis; format: in vivo; conditions: RLYE 0.75 nM, VEGF 50 ng/ml
Description: For a chick chorioallantoic membrane (CAM) analysis, fertilized eggs were incubated for 3 days, and a window was made in the same manner as used in the previous research (18). The window (with a diameter of about 3 cm) was made by removing a shell and an inner layer of the shell, and the exposed part was sealed with cellophane tape. The eggs were stood upright at 37° C. in an incubator (with a humidity of 55 to 60%) and were incubated for 3 days. A Thermanox disc containing 10 μl of a salt-free solution containing RLYE (SEQ ID NO: 2) (0.75 nM) alone or in combination with VEGF (50 ng/ml) was gently placed on a CAM that had been incubated for 10 days. After 72-hour incubation, blood vessels formed above were stained by injecting 1 ml of a 10% intralipose (fat emulsion) solution right under the CAM. The stained blood vessels were photographed using a Nikon digital camera, and the number of blood vessels newly formed around the disc was counted.

[7] = system: Akt; assay: Western blot, Akt phosphorylation in VEGF-A-stimulated HUVECs; format: cell-based, human; conditions: HUVECs stimulated with VEGF-A
Description: as §1

[8] = system: NO synthase (eNOS); assay: Western blot, eNOS phosphorylation in VEGF-A-stimulated HUVECs; format: cell-based, human
Description: as §1

[9] = system: Src; assay: Western blot, Src phosphorylation in VEGF-A-stimulated HUVECs; format: cell-based, human; conditions: HUVECs stimulated with VEGF-A
Description: as §1

[10] = system: B16F1 mouse melanoma cells; assay: Mouse melanoma (B16F1) animal model; format: in vivo, C57BL/6J mouse; conditions: 1 mg/kg per day peritoneally
Description: 100 μl each of 2×10^6 B16F1 mouse melanoma cells and 1×10^7 HCT116 human colorectal tumor cells were subcutaneously injected into the left side of a C57BL/6J mouse and a nude mouse. After a tumor volume reached at least 50 to 70 mm3 (taking about 7 days), saline or RLYE (SEQ ID NO: 2) (0.5 or 1.0 mg/kg) was peritoneally injected daily into the mice. A tumor size was two-dimensionally measured with calipers. A tumor volume (mm3) was calculated by a formula of […]. Following homogenization of tumor tissue with PBS and centrifugation (at 12,000×g for 5 min), a hemoglobin-containing supernatant was extracted to be used in analysis with Drabkin's reagent (Sigma). A hemoglobin level was measured by a cyanmethemoglobin method, and the amount of hemoglobin per gram of the tumor was calculated.

[11] = system: ERK; assay: Western blot, ERK phosphorylation in HUVECs; format: cell-based, human
Description: as §1

[12] = system: HUVECs; assay: HUVEC tube formation on Matrigel; format: cell-based, human
Description: Tube formation of HUVECs was examined using growth factor-reduced Matrigel (hereinafter, referred to as “Matrigel”). 250 μl of Matrigel (10 mg protein/ml) was placed in a 24-well plate to allow polymerization for 30 minutes at 37° C. […] The tube formation was examined under a reverse phase-contrast microscope, and visualized with Image-Pro Plus version 4.5 (Media Cybernetics, San Diego, Calif.). Five samples were randomly selected to measure and quantify a length of the tube formed above.

T1 sequence (P17948 27-1338): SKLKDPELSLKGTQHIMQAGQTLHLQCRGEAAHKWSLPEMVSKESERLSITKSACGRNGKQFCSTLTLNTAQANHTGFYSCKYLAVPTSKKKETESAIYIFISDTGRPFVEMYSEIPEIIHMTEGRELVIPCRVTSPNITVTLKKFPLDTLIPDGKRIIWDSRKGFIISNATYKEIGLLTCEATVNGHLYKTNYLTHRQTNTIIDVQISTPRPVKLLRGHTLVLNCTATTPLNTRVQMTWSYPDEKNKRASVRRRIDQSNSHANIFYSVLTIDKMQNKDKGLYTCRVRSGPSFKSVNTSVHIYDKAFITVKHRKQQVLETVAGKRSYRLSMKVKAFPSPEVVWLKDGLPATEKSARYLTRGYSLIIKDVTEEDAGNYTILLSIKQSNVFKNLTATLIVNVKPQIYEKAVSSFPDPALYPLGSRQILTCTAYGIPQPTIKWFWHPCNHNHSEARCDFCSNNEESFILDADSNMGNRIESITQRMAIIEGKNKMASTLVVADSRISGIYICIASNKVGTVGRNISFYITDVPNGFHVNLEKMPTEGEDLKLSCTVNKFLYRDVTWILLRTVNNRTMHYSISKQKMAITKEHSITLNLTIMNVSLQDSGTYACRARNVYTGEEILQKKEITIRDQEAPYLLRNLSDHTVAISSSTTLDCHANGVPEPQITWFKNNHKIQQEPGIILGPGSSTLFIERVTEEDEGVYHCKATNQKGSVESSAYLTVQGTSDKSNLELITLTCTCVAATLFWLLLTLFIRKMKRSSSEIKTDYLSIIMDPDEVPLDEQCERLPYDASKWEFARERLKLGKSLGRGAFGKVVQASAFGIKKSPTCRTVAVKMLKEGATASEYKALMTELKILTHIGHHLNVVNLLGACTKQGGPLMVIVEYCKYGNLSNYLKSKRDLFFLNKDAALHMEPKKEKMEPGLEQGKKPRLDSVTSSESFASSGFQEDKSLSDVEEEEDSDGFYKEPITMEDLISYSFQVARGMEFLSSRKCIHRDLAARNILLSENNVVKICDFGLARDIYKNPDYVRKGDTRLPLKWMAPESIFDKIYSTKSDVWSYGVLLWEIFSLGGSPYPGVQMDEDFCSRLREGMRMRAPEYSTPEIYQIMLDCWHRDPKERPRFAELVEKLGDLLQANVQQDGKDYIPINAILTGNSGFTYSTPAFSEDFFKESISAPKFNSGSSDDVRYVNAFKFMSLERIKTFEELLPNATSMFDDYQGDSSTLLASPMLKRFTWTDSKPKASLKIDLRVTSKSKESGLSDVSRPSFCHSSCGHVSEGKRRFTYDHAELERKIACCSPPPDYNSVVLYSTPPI
VEGFR-2, sequence (P35968 20-1356): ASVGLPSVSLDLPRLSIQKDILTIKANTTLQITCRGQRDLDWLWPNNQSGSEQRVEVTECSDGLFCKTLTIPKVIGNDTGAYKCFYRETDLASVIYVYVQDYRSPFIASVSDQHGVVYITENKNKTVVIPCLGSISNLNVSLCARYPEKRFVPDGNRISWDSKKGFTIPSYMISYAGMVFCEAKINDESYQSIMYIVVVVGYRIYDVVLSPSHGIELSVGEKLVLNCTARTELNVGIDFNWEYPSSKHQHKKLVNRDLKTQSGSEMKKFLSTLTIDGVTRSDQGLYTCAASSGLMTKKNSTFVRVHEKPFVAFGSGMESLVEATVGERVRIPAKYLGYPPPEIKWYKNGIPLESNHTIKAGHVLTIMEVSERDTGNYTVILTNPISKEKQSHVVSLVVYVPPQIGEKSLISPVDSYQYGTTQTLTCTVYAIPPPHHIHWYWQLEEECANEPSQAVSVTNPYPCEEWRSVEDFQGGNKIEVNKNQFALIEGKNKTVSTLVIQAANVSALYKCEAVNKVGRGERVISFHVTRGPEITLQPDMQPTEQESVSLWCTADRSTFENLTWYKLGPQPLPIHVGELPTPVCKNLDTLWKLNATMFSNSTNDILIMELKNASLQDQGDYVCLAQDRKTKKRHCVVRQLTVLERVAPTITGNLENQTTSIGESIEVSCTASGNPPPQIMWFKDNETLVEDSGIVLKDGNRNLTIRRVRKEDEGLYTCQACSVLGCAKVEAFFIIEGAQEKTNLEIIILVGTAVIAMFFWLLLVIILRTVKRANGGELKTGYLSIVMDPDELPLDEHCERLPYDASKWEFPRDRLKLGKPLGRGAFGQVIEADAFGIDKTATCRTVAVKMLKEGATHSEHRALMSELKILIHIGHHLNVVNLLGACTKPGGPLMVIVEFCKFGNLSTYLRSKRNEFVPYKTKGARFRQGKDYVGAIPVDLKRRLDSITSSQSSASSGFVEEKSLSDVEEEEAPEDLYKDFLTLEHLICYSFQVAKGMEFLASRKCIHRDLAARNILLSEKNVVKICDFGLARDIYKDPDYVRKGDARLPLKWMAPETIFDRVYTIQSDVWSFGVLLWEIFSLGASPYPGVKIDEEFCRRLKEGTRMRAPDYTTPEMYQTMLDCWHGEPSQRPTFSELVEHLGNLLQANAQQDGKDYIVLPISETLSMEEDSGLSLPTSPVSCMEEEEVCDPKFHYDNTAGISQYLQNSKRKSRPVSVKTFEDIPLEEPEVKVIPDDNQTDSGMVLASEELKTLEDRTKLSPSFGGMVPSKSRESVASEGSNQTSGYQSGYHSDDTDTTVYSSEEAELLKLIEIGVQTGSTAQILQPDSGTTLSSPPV

phosphorylation of VEGFR-2 [2]: inhibits
binding to VEGFR-1 (pull-down) [5]: does not bind to VEGFR-1
SMILES: CC(C)C[C@H](NC(=O)[C@@H](N)CCCNC(=N)N)C(=O)N[C@@H](Cc1ccc(O)cc1)C(=O)N[C@@H](CCC(=O)O)C(=O)O [RLYE] (H-RLYE-OH; N-terminus and C-terminus assumed)
formation of intersegmental vessels (ISV) [1]: obviously inhibited
formation of subintestinal vessels (SIV) [1]: considerably inhibited
activation of p38 [3]: inhibited
VEGF-A-induced angiogenesis in Matrigel implant [4]: effectively inhibited
VEGF-A-induced blood vessel density in CAM [6]: considerable reduction
phosphorylation of Akt [7]: inhibited
VEGF-A-induced phosphorylation of eNOS [8]: effectively blocked
phosphorylation of Src [9]: inhibited
tumor growth [10]: significantly decreased
tumor size [10]: significantly decreased
tumor weight [10]: significantly decreased
P1GF-induced ERK phosphorylation ([11]; P1GF (ligand of VEGFR-1)): did not inhibit
inhibition of VEGF-induced ERK phosphorylation ([11]; VEGF / VEGF-A stimulated): inhibited; also recorded: more effectively inhibited; also recorded: highest inhibitory effect
VEGF-B-induced ERK phosphorylation ([11]; VEGF-B (ligand of VEGFR-1)): did not inhibit
inhibition of VEGF-induced tube formation ([12]; HUVECs, peptide 0.15 nM, VEGF 10 ng/ml): effectively regulated; also recorded: much higher inhibitory effect on the tube formation than KLYD; also recorded: effectively inhibited
bFGF-induced tube formation of HUVECs ([12]; bFGF stimulated): did not inhibit
